In US5593984A, “Cephalosporin derivatives” (Yuhan Corporation, priority 1992, dated 1997):
≈ marks a conversion by molar mass, not a printed value.

Key:
Format in all cases: cell-based
B. subtilis ATCC 6633 = assay: MIC by agar dilution, B. subtilis ATCC 6633; conditions: Bacillus subtilis, ATCC6633, 17 h; B. subtilis ATCC 6633; agar dilution, Mueller-Hinton agar; read-out: Minimal Inhibitory Concentration (MIC)
Method in brief: (§1)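 Inoculum of 10^6 CFU per ml was spotted onto Mueller-Hinton agar plates carrying two-fold compound dilutions. Plates were held at 35°-37° C. for 17±1 hours before the minimum inhibitory concentration was recorded.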

Staph. aureus ATCC 6538P = assay: MIC by agar dilution, Staph. aureus ATCC 6538P; conditions: Staphylococcus aureus, ATCC6538P, 17 h; Staph. aureus ATCC 6538P; agar dilution, Mueller-Hinton agar; read-out: Minimal Inhibitory Concentration (MIC)
Method in brief: as §1

Staph. aureus Smith = assay: MIC by agar dilution, Staph. aureus Smith; conditions: Staphylococcus aureus, 17 h, Mueller-Hinton agar, read-out: Minimal Inhibitory Concentration (MIC)
Method in brief: as §1

Staph. aureus C-57 = assay: MIC by agar dilution, Staph. aureus C-57; conditions: Staphylococcus aureus, C57, 17 h, Mueller-Hinton agar, read-out: Minimal Inhibitory Concentration (MIC)
Method in brief: as §1

Staph. aureus C-5113 = assay: MIC by agar dilution, Staph. aureus C-5113; conditions: Staphylococcus aureus, C5113, 17 h, Mueller-Hinton agar, read-out: Minimal Inhibitory Concentration (MIC)
Method in brief: as §1

Staph. aureus C-5216 = assay: MIC by agar dilution, Staph. aureus C-5216; conditions: Staphylococcus aureus, C5216, 17 h, Mueller-Hinton agar, read-out: Minimal Inhibitory Concentration (MIC)
Method in brief: as §1

[1] = system: S. epidermidis ATCC 12228; assay: MIC by agar dilution, S. epidermidis ATCC 12228; conditions: Staphylococcus epidermidis, ATCC12228, 17 h; S. epidermidis ATCC 12228; agar dilution, Mueller-Hinton agar; read-out: Minimal Inhibitory Concentration (MIC)
Method in brief: as §1

Ent. aerogenes IFO 12979 = assay: MIC by agar dilution, Ent. aerogenes IFO 12979; conditions: Klebsiella aerogenes, IFO12979, 17 h, Mueller-Hinton agar, read-out: Minimal Inhibitory Concentration (MIC)
Method in brief: as §1

Ent. cloacae IFO 13535 = assay: MIC by agar dilution, Ent. cloacae IFO 13535; conditions: Enterobacter cloacae, IFO13535, 17 h; Ent. cloacae IFO 13535; agar dilution, Mueller-Hinton agar; read-out: Minimal Inhibitory Concentration (MIC)
Method in brief: as §1

E. coli NIHJ JC-2 = assay: MIC by agar dilution, E. coli NIHJ JC-2; conditions: Escherichia coli, NIHJJC2, 17 h; E. coli NIHJ JC-2; agar dilution, Mueller-Hinton agar; read-out: Minimal Inhibitory Concentration (MIC)
Method in brief: as §1

E. coli No. 29 = assay: MIC by agar dilution, E. coli No. 29; conditions: Escherichia coli, 17 h; E. coli No. 29; agar dilution, Mueller-Hinton agar; read-out: Minimal Inhibitory Concentration (MIC)
Method in brief: as §1

E. coli DY-1 = assay: MIC by agar dilution, E. coli DY-1; conditions: Escherichia coli, DY1, 17 h; E. coli DY-1; agar dilution, Mueller-Hinton agar; read-out: Minimal Inhibitory Concentration (MIC)
Method in brief: as §1

K. pneumoniae NCTC 9632 = assay: MIC by agar dilution, K. pneumoniae NCTC 9632; conditions: Klebsiella pneumoniae, NCTC9632, 17 h; K. pneumoniae NCTC 9632; agar dilution, Mueller-Hinton agar; read-out: Minimal Inhibitory Concentration (MIC)
Method in brief: as §1

M. morganii DY-1 = assay: MIC by agar dilution, M. morganii DY-1; conditions: Morganella morganii, DY1, 17 h; M. morganii DY-1; agar dilution, Mueller-Hinton agar; read-out: Minimal Inhibitory Concentration (MIC)
Method in brief: as §1

[2] = system: Ps. aeruginosa ATCC 10145; assay: MIC by agar dilution, Ps. aeruginosa ATCC 10145; conditions: Pseudomonas aeruginosa, ATCC10145, 17 h, Mueller-Hinton agar, read-out: Minimal Inhibitory Concentration (MIC)
Method in brief: as §1

[3] = system: Ps. aeruginosa NCTC 10490; assay: MIC by agar dilution, Ps. aeruginosa NCTC 10490; conditions: Pseudomonas aeruginosa, NCTC10490, 17 h, Mueller-Hinton agar, read-out: Minimal Inhibitory Concentration (MIC)
Method in brief: as §1

Ps. aeruginosa DY-2 = assay: MIC by agar dilution, Ps. aeruginosa DY-2; conditions: Pseudomonas aeruginosa, DY2, 17 h; Ps. aeruginosa DY-2; agar dilution, Mueller-Hinton agar; read-out: Minimal Inhibitory Concentration (MIC)
Method in brief: as §1

P. vulgaris NCTC 8313 = assay: MIC by agar dilution, P. vulgaris NCTC 8313; conditions: Proteus vulgaris, NCTC8313, 17 h; P. vulgaris NCTC 8313; agar dilution, Mueller-Hinton agar; read-out: Minimal Inhibitory Concentration (MIC)
Method in brief: as §1

Prov. stuartii IFO 12930 = assay: MIC by agar dilution, Prov. stuartii IFO 12930; conditions: Providencia stuartii, IFO12930, 17 h, Mueller-Hinton agar, read-out: Minimal Inhibitory Concentration (MIC)
Method in brief: as §1

[4] = system: Ser. marcescens IFO 12648; assay: MIC by agar dilution, Ser. marcescens IFO 12648; conditions: Serratia marcescens, IFO12648, 17 h; Ser. marcescens IFO 12648; agar dilution, Mueller-Hinton agar; read-out: Minimal Inhibitory Concentration (MIC)
Method in brief: as §1

For `CON=C(C(=O)NC1C(=O)N2C(C(=O)[O-])=C(C[n+]3ccn4c(C#N)ccc4c3)CSC12)c1csc(N)n1` (stereo not drawn) [Ex. 13, 7-β-[(Z)-2-(2-aminothiazol-4-yl)-2-methoxyiminoacetamido]-3-(6-cyanopyrrolo[1,2-a]pyrazinium-2-yl)methyl-3-cephem-4-carboxylate], the MIC (B. subtilis ATCC 6633) was 0.2 µg/mL (≈ 0.371 µM), the MIC (Staph. aureus ATCC 6538P) was 0.39 µg/mL (≈ 0.724 µM) and the MIC (Staph. aureus Smith) was 1.56 µg/mL (≈ 2.9 µM). For the same compound, the MIC (Staph. aureus C-57) was 25 µg/mL (≈ 46.4 µM), the MIC (Staph. aureus C-5113) was 0.78 µg/mL (≈ 1.45 µM) and the MIC (Staph. aureus C-5216) was 0.78 µg/mL (≈ 1.45 µM). The MIC [1] was 0.1 µg/mL (≈ 0.186 µM), the MIC (Ent. aerogenes IFO 12979) was 0.012 µg/mL (≈ 0.0223 µM) and the MIC (Ent. cloacae IFO 13535) was 0.05 µg/mL (≈ 0.0928 µM). It also gave an MIC (E. coli NIHJ JC-2) of 0.012 µg/mL (≈ 0.0223 µM), an MIC (E. coli No. 29) of 0.012 µg/mL (≈ 0.0223 µM) and an MIC (E. coli DY-1) of 0.012 µg/mL (≈ 0.0223 µM). The MIC (K. pneumoniae NCTC 9632) was 0.025 µg/mL (≈ 0.0464 µM), the MIC (M. morganii DY-1) was 0.025 µg/mL (≈ 0.0464 µM) and the MIC [2] was 0.78 µg/mL (≈ 1.45 µM). For the same compound, the MIC [3] was 0.39 µg/mL (≈ 0.724 µM), the MIC (Ps. aeruginosa DY-2) was 3.13 µg/mL (≈ 5.81 µM) and the MIC (P. vulgaris NCTC 8313) was no more than 0.006 µg/mL. It also gave an MIC (Prov. stuartii IFO 12930) of no more than 0.006 µg/mL and an MIC [4] of 0.012 µg/mL (≈ 0.0223 µM).

For `Nc1nc(C(=NOCCF)C(=O)NC2C(=O)N3C(C(=O)[O-])=C(C[n+]4ccn5cccc5c4)CSC23)cs1` (stereo not drawn) [Ex. 5, 7-β-[(Z)-2-(2-aminothiazol-4-yl)-2-(2-fluoroethoxyimino)acetamido]-3-(pyrrolo[1,2-a]pyrazinium-2-yl)methyl-3-cephem-4-carboxylate], the MIC (B. subtilis ATCC 6633) was 0.1 µg/mL (≈ 0.183 µM), the MIC (Staph. aureus ATCC 6538P) was 0.2 µg/mL (≈ 0.367 µM) and the MIC (Staph. aureus Smith) was 0.2 µg/mL (≈ 0.367 µM). For the same compound, the MIC (Staph. aureus C-57) was 12.5 µg/mL (≈ 22.9 µM), the MIC (Staph. aureus C-5113) was 0.2 µg/mL (≈ 0.367 µM) and the MIC (Staph. aureus C-5216) was 0.2 µg/mL (≈ 0.367 µM). The MIC [1] was 0.025 µg/mL (≈ 0.0458 µM), the MIC (Ent. aerogenes IFO 12979) was no more than 0.006 µg/mL and the MIC (Ent. cloacae IFO 13535) was 0.025 µg/mL (≈ 0.0458 µM). The MIC (E. coli NIHJ JC-2) was 0.012 µg/mL (≈ 0.022 µM), the MIC (E. coli No. 29) was no more than 0.006 µg/mL and the MIC (E. coli DY-1) was no more than 0.006 µg/mL. For the same compound, the MIC (K. pneumoniae NCTC 9632) was no more than 0.006 µg/mL, the MIC (M. morganii DY-1) was no more than 0.006 µg/mL and the MIC [2] was 0.39 µg/mL (≈ 0.715 µM). The MIC [3] was 0.2 µg/mL (≈ 0.367 µM), the MIC (Ps. aeruginosa DY-2) was 1.56 µg/mL (≈ 2.86 µM) and the MIC (P. vulgaris NCTC 8313) was no more than 0.006 µg/mL. For the same compound, the MIC (Prov. stuartii IFO 12930) was no more than 0.006 µg/mL and the MIC [4] was no more than 0.006 µg/mL.

Work on `CO/N=C(\C(=O)N[C@@H]1C(=O)N2C(C(=O)[O-])=C(C[n+]3ccn4c(C#N)ccc4c3C)CS[C@H]12)c1csc(N)n1` [Ex. 43, 7-β-[(Z)-2-(2-aminothiazol-4-yl)-2-methoxyiminoacetamido]-3-(1-methyl-6-cyanopyrrolo[1,2-a]pyrazinium-2-yl)methyl-3-cephem-4-carboxylate] yielded an MIC (B. subtilis ATCC 6633) of 0.2 µg/mL (≈ 0.362 µM), an MIC (Staph. aureus ATCC 6538P) of 0.1 µg/mL (≈ 0.181 µM) and an MIC (Staph. aureus Smith) of 0.78 µg/mL (≈ 1.41 µM). It also gave an MIC (Staph. aureus C-57) of 12.5 µg/mL (≈ 22.6 µM), an MIC (Staph. aureus C-5113) of 1.56 µg/mL (≈ 2.82 µM) and an MIC (Staph. aureus C-5216) of 0.78 µg/mL (≈ 1.41 µM). The MIC [1] was 0.012 µg/mL (≈ 0.0217 µM), the MIC (Ent. aerogenes IFO 12979) was 0.012 µg/mL (≈ 0.0217 µM) and the MIC (Ent. cloacae IFO 13535) was 0.2 µg/mL (≈ 0.362 µM). For the same compound, the MIC (E. coli NIHJ JC-2) was 0.025 µg/mL (≈ 0.0452 µM), the MIC (E. coli No. 29) was 0.05 µg/mL (≈ 0.0905 µM) and the MIC (E. coli DY-1) was 0.012 µg/mL (≈ 0.0217 µM). It also gave an MIC (K. pneumoniae NCTC 9632) of 0.1 µg/mL (≈ 0.181 µM), an MIC (M. morganii DY-1) of 0.05 µg/mL (≈ 0.0905 µM) and an MIC [2] of 0.78 µg/mL (≈ 1.41 µM). For the same compound, the MIC [3] was 0.78 µg/mL (≈ 1.41 µM), the MIC (Ps. aeruginosa DY-2) was 12.5 µg/mL (≈ 22.6 µM) and the MIC (P. vulgaris NCTC 8313) was no more than 0.006 µg/mL. For the same compound, the MIC (Prov. stuartii IFO 12930) was 0.012 µg/mL (≈ 0.0217 µM) and the MIC [4] was 0.05 µg/mL (≈ 0.0905 µM).
